Consider four molecules from patent publication US10301203B2, “Chloroperoxidase-catalyzed degradation of pharmaceutical pollutants in wastewater” (THE FLORIDA INTERNATIONAL UNIVERSITY BOARD OF TRUSTEES, priority 2017, dated 2019).

Molecules are shown by their SMILES. Converted amounts (≈) assume the structure as drawn.

The target of data set [1] is T1, chloroperoxidase (CPO) (Leptoxyphium fumago, UniProt P04963).
T1 sequence (P04963 21-319 limits assumed): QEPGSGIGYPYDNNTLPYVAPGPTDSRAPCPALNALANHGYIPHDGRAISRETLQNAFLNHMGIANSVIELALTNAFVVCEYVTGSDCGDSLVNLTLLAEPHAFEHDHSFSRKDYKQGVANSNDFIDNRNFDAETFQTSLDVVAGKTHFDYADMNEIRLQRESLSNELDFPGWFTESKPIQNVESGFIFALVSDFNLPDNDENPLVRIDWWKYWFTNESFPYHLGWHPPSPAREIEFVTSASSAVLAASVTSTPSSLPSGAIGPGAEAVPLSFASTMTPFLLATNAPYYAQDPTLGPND
Kind of data set: CPO-catalyzed degradation of CBZ, UV-Vis at 285 nm. It is filed as biochemical, Caldariomyces fumago. Also noted: The isolation of CPO proposed in this study was a modification of the protocol reported by Morris and Hager (1966); made in house; host or cells: native producer. The following applies: 20 mM Cl-, 0.07 mM CBZ, 0.07 mM H2O2, 2.5 nM CPO. Here is the method:
A VARIAN UV-Vis spectrophotometer (Cary 200 Bio) was used to collect the UV spectra of the degradation products. The drug solution was scanned by dissolving 0.07 mM CBZ in 100 mM KH2PO4 buffer with 20 mM KCl at pH 2.75. The same solution was monitored after being mixed with 0.35 mM H2O2. UV spectra were recorded after the addition of 5 nM CPO for 1 min., 2.5 min., and 4 min.
The effect of the concentration of chloride was investigated. Degradation was carried out in 100 mM phosphate buffer at pH 3.0 with 0.07 mM CBZ and 0.07 mM H2O2. Concentration of chloride was increased from 0 to 20 mM. 285 nm wavelength was monitored immediately after 2.5 nM CPO was added.
The degradation rate at pH range of 2.0 to 5.0 was investigated to probe the effect of pH on the CPO-catalyzed reaction. The reaction was carried out in 100 mM phosphate buffer with 20 mM KCl, 0.07 mM CBZ, and 0.07 mM H2O2. […] 285 nm wavelength was monitored immediately after the addition of 2.5 nM CPO. The calculated time was 0.2 to 0.4 min.
The degradation rate of CBZ was determined by different concentrations of H2O2, ranging from 0.07 to 0.71 mM, in 100 mM phosphate buffer with 20 mM KCl and 0.07 mM CBZ at pH 3.0. A wavelength of 285 nm was monitored immediately after the addition of 5 nM CPO. The degradation rate was calculated at 0.1 to 0.3 min.
The rate was calculated by monitoring absorbance at 285 nm from 0.1 to 0.2 min. […]

Data set [2] can be described thus: MTT assay, cell viability. Type of data set: cell-based. The following applies: human, MDA-MB-231 breast cancer cells, read-out: MTT incorporation (cell viability) as percentage of control. Here is the method: After incubation, the medium was removed and formazan crystals were dissolved in detergent reagent following the manufacturer's instructions (ATCC). Optical density for each condition was determined at 570 nm. MTT incorporation was expressed as percentage of the control in the absence of compounds.

For data set [3], the target named is T1, chloroperoxidase (CPO). The data set can be described thus: CPO-catalyzed degradation in CPO-H2O2-Cl- system, LC-Q-TOF-MS. Type of data set: biochemical, Caldariomyces fumago. Further details: The isolation of CPO proposed in this study was a modification of the protocol reported by Morris and Hager (1966); made in house; host or cells: native producer.
Experimental: The mixture was centrifuged at 3,000 g in Centriprep® centrifugal filter unit with a 30,000 Dalton cut-off membrane (EMD Millipore, Billerica, Mass., USA). The yielded product was collected after being centrifuged for 1 min. Ethyl acetate was used to extract the filtrate while shaking vigorously, and the supernatant was evaporated to dryness using nitrogen gas. The dried metabolites were dissolved in H2O/methanol (95:5 v/v) to achieve a final concentration of 1 mg/L (ppm). Each sample was either stored in a freezer at −20° C. or immediately run in the LC-Q-TOF-MS mass spectrometer system.
Chromatographic separation and identification of metabolites was performed using the Agilent 1290 Infinity UPLC system coupled with Agilent 6530 Q-TOF mass spectrometer. The Agilent MassHunter Data Acquisition Software (rev. B0.06.00) was used to control the UPLC and the mass spectrometer. Mass Hunter Qualitative Data Analysis Software (Rev. B.07.00) was used for data mining and identification. An Agilent ZORBAX Eclipse plus C18 Rapid Resolution High Definition (RRHD) column (100 mm×1.8 μm) was applied, with the column temperature set at 30° C. via a thermostatted column compartment (TCC). An infinity 1290 automatic injector was used to inject 1 μL of the sample to the column. […]
In data set [4] the test system is C. pyrenoidosa. The data set can be described thus: Growth-inhibitory (eco-toxicity) test on freshwater green alga. Type of data set: cell-based, Chlorella pyrenoidosa. The following applies: Auxenochlorella pyrenoidosa, 72 h; at the end of CPO-catalyzed degradation (product mixture of the named drug). How it is done: Freshwater unicellular green alga, C. pyrenoidosa (provided by the Institute of Wuhan Hydrobiology, Chinese Academic of Science), was cultivated in nutrient media of blue green medium (BG11) at 298K and illuminated with cool-white fluorescent lights at a continuous light intensity of 2000 Lx. For cell experiments, C. pyrenoidosa was exposed, during its log growth phase, to the toxicant at five different concentrations (maintain final concentration ranging from 0.01 to 0.36 mg/L) for 3-4 days at 298K. The concentration of the alga was determined by monitoring the change of absorption at 680 nm (Ma et al., 2006). The toxicity tests for each drug concentration were conducted in triplicate.
The growth inhibition rate for each sample was calculated.
However, toxicity evaluation about the products from diclofenac and naproxen are not readily available. Biological assays offer a direct measure to evaluate the magnitude of the potential health risk of chemicals. Therefore, a growth-inhibitory test was carried out using C. Pyrenoidosa.

In data set [5] the target is T1, chloroperoxidase (CPO). Kind of data set: CPO-catalyzed degradation of diclofenac and naproxen, HPLC. Type of data set: biochemical, C. fumago. Further details: CPO was isolated from the growth medium of C. fumago; made in house; host or cells: Caldariomyces fumago growth medium (native producer). The note with it: for CPO concentration for complete degradation: 15 μmol/L drug, 0.1 mmol/L H2O2; for fraction of drug degraded within 1 min / time to complete degradation: optimum reaction condition; for pH of maximum degradation efficiency: pH range 2-6. How it is done:
Enzymatic degradation of both drugs was carried out in 0.1 mol·L-1 phosphate buffer in a centrifugal tube with a total volume of 3.0 mL containing CPO (0.25-0.23 nmol·L-1), 20 mmol·L-1 KCl, and drugs (15 μmol·L^−1) at pH 2˜6 at 298K. The reaction was started by adding H2O2 (0.015-0.3 mmol·L^−1) in the absence of light under magnetic stirring and was continued for 20 min. The supernatant of the reaction mixture was extracted 3 times using ethyl acetate. The combined organic extract was concentrated by rotary evaporation (0.09 MPa, 308K) to remove the solvent. The extracts were then dissolved in acetonitrile and methanol, respectively, for HPLC (LC-20AT, Shimadzu) analysis. The mobile phase consisted of 80:20 (v/v) acetonitrile and water for diclofenac and 90:10 (v/v) methanol and water for naproxen, and the flow rate was 0.5 ml·min^−1. The detector was set at 274 nm and 235 nm for diclofenac and naproxen, respectively. The quantitative analysis of the target compounds was based on the standard curve (correlation coefficients were >0.999). The effect of reaction parameters (pH, concentration of enzyme/H2O2, and reaction time) on degradation efficiency was investigated and optimized.
All experiments were triplicated and data reported were mean values of three independent measurements.

For the molecule `NC(=O)N1c2ccccc2C=Cc2ccccc21` [CBZ, Carbamazepine], in data set [1], the “optimum pH for degradation” value is 3.0. Moreover, in data set [2], the viability at 24 h, 0.0425 μg/ml is 80%; the viability at 24 h, 0.85 μg/ml came out at 60%; the viability at 24 h, 1.7 μg/ml amounted to 45%. Besides, the degradation efficiency in data set [3] (10.59 μM (2.5 mg/L) CBZ, 107.19 μM H2O2, 2.9 nM CPO, 10 min) amounted to 100%.

As to `Cc1cc(C)nc(NS(=O)(=O)c2ccc(N)cc2)n1` [SMZ, Sulfamethazine], in data set [2], the viability at 24 h, 0.0425 μg/ml came out at 80%; the viability at 24 h, 0.85 μg/ml came to 50%; the viability at 24 h, 1.7 μg/ml amounted to 40%. For the same molecule, the degradation efficiency in data set [3] (62.45 μM SMZ, 1.3 nM CPO, H2O2 added stepwise, 30 min) is on record as 100%.

Usually EC50 stands for the concentration needed to bring the measured effect to its halfway point. As for `O=C([O-])Cc1ccccc1Nc1c(Cl)cccc1Cl.[Na+]` [diclofenac, 2-[(2,6-dichlorophenyl)amino]benzeneacetic acid; sodium salt], the EC50 in data set [4] was determined as 0.25 µg/mL. In data set [5], the “CPO concentration for complete degradation” value was “above 5.0 nmol·L^−1”, the “fraction of drug degraded within 1 min” value was “about 70%”, the “time to complete degradation” value is 9 min and the “pH of maximum degradation efficiency” value is listed as ~3.2.

In the case of `COc1ccc2cc(C(C)C(=O)O)ccc2c1` (stereo not shown) [naproxen, 2-(6-methoxynaphthalen-2-yl)propionic acid], in data set [4], the EC50 turned out to be 0.33 µg/mL (≈ 1.43 µM). Besides, in data set [5], the “CPO concentration for complete degradation” value was > 20.0 nmol/L, the “fraction of drug degraded within 1 min” value is given as ~75%, the “time to complete degradation” value was determined as 7 min and the “pH of maximum degradation efficiency” value is ~3.2.
